From patent US20240182460A1, “ALLOSTERIC CHROMENONE INHIBITORS OF PHOSPHOINOSITIDE 3-KINASE (PI3K) FOR THE TREATMENT OF DISEASE” (PETRA PHARMA CORPORATION, priority 2022, published 2024)

Columns and labels:
PI3Kα E545K [1] = target: T1, PI3Kα E545K (Homo sapiens, UniProt P42336, E545K); test: PI3Kα E545K mutant in vitro cell based assay, MCF-7 cells; conditions: MCF-7 cell line, 0% FBS, 3 hours treatment
From the text: PI3K-Alpha Kinase (PI3Kα) Activity: Wild-Type PI3Kα, H1047R Mutant PI3Kα, and E545K Mutant PI3Kα In Vitro Cell Based Assays and Determination of IC50 Values for Inhibitors
The MDA-MB-453 (ATCC-HTB-131) cell line (PI3Kα H1047R) and MCF-7 (ATCC-HTB-22) cell line (PI3Kα E545K), MDA-MB-361 (ATCC-HTB-27) cell line (PI3Kα E545K), and SKBR3 (ATCC-HTB-30) cell line (wild type PI3Kα) were obtained from the American Type Culture Collection (Manassas, VA). MDA-MB-453 cells were maintained in Dulbecco's Modified Eagle Media (DMEM, Gibco 12430) supplemented with 10% Fetal Bovine Serum, heat inactivated (FBS HI, Gibco 10082), 1× non-essential amino acids (NEAA, Gibco 11140), 1 mM sodium pyruvate (Gibco 11360) and 1× Anti-Anti (Gibco 15240). MCF-7 cells were maintained in Minimum Essential Media (MEM) (Gibco 11095) supplemented with 10% Fetal Bovine Serum, heat inactivated (FBS HI, Gibco 10082), 1× non-essential amino acids (NEAA, Gibco 11140), 1 mM sodium pyruvate (Gibco 11360), 1× Anti-Anti (Gibco 15240) and 10 μg/mL human insulin (Sigma I 9278). MDA-MB-361 cells were maintained in Dulbecco's Modified Eagle Media (DMEM, Gibco 12430) supplemented with 20% Fetal Bovine Serum, heat inactivated (FBS HI, Gibco 10082), 1× non-essential amino acids (NEAA, Gibco 11140), 1 mM sodium pyruvate (Gibco 11360) and 1× Anti-Anti (Gibco 15240). SKBR3 cells were maintained in McCoy's 5A (Gibco 16600) supplemented with 10% Fetal Bovine Serum, heat inactivated (FBS HI, Gibco 10082), and 1× Anti-Anti (Gibco 15240). Cultures were maintained in a humidified incubator at 37° C. under 5% CO2/95% air.
For compound testing in 0% FBS, MDA-MB-453, MCF-7 and SKBR3 cells were seeded at a density of 1.5×10^4, 1.0×10^4, and 1.0×10^4 cells, respectively, per well in white 384-well plates in 20 μl of Minimum Essential Media (MEM) assay media with 1×NEAA, 1 mM sodium pyruvate, and 1 μg/mL human insulin (Sigma 19278) (Assay Medium); while MDA-MB-361 cells were seeded at a density of 1.5×10^4 per well in white 384-well plates in 20 μl Assay Medium without insulin. After plating, cells were allowed to attach overnight. Compounds dissolved in 10 mM stock solutions in DMSO were serially diluted 1:3 in DMSO to generate a 10-point dilution series and plated using an acoustic liquid handler system (Echo 550 Series Liquid Handler, Labcyte). A 5× intermediate compound dilution plate in MEM with 1×NEAA and 1 mM sodium pyruvate (150 μM starting compound concentration in 1.5% DMSO) was then prepared. Five μl of the intermediate serially diluted compounds were added to the cell plate to final concentrations ranging from […] in 0.3% DMSO. 0.3% DMSO alone was used to establish the maximum (MAX) signal and GDC-0032 at a final concentration of 1 μM was used as a reference compound for the minimum (MIN) signal. After 3 hours treatment, the medium was removed, and the cells were lysed in 10 μL of 1× SureFire Lysis buffer with shaking for 10 minutes at room temperature. The Acceptor Mix (Reaction Buffer 1+Reaction Buffer 2+Activation Buffer+SureFire Ultra Acceptor Beads) was prepared by diluting Activation buffer 25-fold in combined Reaction Buffer 1 and Reaction Buffer 2.
The Acceptor beads were diluted 50-fold in the combined Reaction Buffers. Five μL of Acceptor Mix was added to each well, the plate was sealed and covered with foil and incubated for 1 hour at room temperature. The Donor Mix (dilution buffer+SureFire Ultra Donor Beads) was prepared by diluting Donor Beads 50-fold in dilution buffer. Five μL of the Donor Mix was added to each well and the plate sealed and covered with foil and incubated for 1-2 hours at room temperature in the dark. The plates were read on a Neo2 plate reader instrument from Biotek using standard AlphaLisa settings.
Compounds were tested in duplicate and the % inhibition at each compound concentration was used to generate two dose response curves. One IC50 was generated using average % inhibition at each compound concentration. […]

PI3Kα E545K [2] = target: T1, PI3Kα E545K; test: PI3Kα E545K mutant in vitro cell based assay, MDA-MB-361 cells; design: MDA-MB-361 (ATCC-HTB-27) cell line (PI3Kα E545K); host or cells: MDA-MB-361; conditions: MDA-MB-361 cell line, 0% FBS, no insulin, 3 hours treatment
How it was run: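 Compound exposure lasted 3 hours, in duplicate 10-point 1:3 dilutions at 0.3% DMSO final, on overnight-attached MDA-MB-361 cells carrying PI3Kα E545K in insulin-free, 0% FBS MEM. Lysates read by SureFire AlphaLISA. Relative IC50 from 4-parameter logistic fit versus DMSO and 1 μM GDC-0032 controls.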

T1 sequence (P42336 whole entry E545K): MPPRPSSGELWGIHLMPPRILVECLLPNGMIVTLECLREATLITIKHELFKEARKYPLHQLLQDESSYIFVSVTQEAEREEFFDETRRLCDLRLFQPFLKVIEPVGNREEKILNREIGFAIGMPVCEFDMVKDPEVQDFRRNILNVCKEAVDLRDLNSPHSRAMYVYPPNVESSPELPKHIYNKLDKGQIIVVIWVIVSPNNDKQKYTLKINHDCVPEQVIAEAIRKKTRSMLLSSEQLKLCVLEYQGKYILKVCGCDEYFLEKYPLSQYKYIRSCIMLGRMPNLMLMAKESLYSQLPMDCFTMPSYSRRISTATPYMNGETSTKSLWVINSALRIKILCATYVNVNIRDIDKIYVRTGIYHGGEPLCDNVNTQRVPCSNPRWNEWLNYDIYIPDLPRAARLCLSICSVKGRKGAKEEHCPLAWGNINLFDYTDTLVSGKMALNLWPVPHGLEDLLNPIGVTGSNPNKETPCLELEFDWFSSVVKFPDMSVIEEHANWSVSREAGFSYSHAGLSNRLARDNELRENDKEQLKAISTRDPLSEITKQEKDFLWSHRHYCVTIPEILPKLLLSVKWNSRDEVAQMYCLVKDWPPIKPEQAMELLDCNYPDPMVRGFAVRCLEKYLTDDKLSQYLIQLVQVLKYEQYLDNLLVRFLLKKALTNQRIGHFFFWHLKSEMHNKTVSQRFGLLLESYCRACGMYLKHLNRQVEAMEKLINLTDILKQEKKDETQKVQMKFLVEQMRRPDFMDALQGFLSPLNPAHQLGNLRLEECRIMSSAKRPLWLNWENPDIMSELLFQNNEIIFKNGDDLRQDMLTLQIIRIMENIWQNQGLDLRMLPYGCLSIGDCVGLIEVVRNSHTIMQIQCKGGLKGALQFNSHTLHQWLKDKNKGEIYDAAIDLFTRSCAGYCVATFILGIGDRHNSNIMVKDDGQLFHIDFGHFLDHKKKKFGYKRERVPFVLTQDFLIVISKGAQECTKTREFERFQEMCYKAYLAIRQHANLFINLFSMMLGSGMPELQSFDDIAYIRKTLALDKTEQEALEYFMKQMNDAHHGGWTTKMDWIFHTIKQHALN
T1 sequence (P27986 whole entry partner): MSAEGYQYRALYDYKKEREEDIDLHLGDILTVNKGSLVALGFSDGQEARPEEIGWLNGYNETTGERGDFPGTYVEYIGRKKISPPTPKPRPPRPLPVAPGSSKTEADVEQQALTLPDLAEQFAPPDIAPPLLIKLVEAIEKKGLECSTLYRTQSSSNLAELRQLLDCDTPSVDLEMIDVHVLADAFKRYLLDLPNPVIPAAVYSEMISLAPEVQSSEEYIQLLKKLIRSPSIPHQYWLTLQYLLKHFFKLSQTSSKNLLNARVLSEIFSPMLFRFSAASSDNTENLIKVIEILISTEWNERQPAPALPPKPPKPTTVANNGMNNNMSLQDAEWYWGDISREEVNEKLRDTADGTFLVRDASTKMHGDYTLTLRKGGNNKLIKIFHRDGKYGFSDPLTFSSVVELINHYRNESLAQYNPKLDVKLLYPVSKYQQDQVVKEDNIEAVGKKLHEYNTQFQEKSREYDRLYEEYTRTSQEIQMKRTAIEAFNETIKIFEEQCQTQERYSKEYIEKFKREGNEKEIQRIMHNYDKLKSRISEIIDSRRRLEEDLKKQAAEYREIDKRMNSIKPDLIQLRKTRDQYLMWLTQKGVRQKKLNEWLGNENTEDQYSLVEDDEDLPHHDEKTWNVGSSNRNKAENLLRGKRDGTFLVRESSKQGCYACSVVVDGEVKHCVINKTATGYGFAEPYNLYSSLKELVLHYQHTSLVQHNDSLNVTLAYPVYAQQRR

Structure (SMILES) | IC50 (PI3Kα E545K [1]) [nM] | IC50 (PI3Kα E545K [2]) [nM]
Cc1cc([C@@H](C)Oc2ccc(Cl)nc2S(N)(=O)=O)c2oc(C3CC3CO)c(C)c(=O)c2c1 (single isomer, unassigned) [Example 126C] | < 500 | < 500
Cc1cc([C@@H](C)Oc2ccc(Cl)nc2S(N)(=O)=O)c2oc(-c3ccc4nn(C)cc4c3)c(C)c(=O)c2c1 [Example 16A, 6-Chloro-3-[(1R)-1-[3,6-dimethyl-2-(2-methylindazol-5-yl)-4-oxo-chromen-8-yl]ethoxy]pyridine-2-sulfonamide] | < 500 | < 500
Cc1cc([C@@H](C)Oc2ccc(F)c(F)c2C(N)=O)c2oc(-c3ccc4nn(C)cc4c3)c(C)c(=O)c2c1 [Example 17A, 6-[(1R)-1-[3,6-Dimethyl-2-(2-methylindazol-5-yl)-4-oxo-chromen-8-yl]ethoxy]-2,3-difluoro-benzamide] | < 500 | < 500
Cc1cc([C@@H](C)Oc2cccnc2C(=O)NOCC2CC2)c2oc(-c3ccc4nn(C)cc4c3)c(C)c(=O)c2c1 [Example 25A, N-(Cyclopropylmethoxy)-3-[(1R)-1-[3,6-dimethyl-2-(2-methylindazol-5-yl)-4-oxo-chromen-8-yl]ethoxy]pyridine-2-carboxamide] | < 500 | < 500
Cc1cc([C@@H](C)Oc2ccc(Cl)cc2S(N)(=O)=O)c2oc(-c3ccccc3)c(C)c(=O)c2c1 [Example 98C, 5-Chloro-2-[(1R)-1-(3,6-dimethyl-4-oxo-2-phenyl-chromen-8-yl)ethoxy]benzenesulfonamide] | < 500 | < 500
Cc1cc([C@@H](C)Oc2ccc(F)cc2S(N)(=O)=O)c2oc(C3CC3)c(C)c(=O)c2c1 [Example 107C, 2-[(1R)-1-(2-Cyclopropyl-3,6-dimethyl-4-oxo-chromen-8-yl)ethoxy]-5-fluoro-benzenesulfonamide] | < 500 | < 500
Cc1cc([C@@H](C)Oc2ccc(Cl)nc2S(N)(=O)=O)c2oc(C3COC3)c(C)c(=O)c2c1 [Example 114C, 6-Chloro-3-[(1R)-1-[3,6-dimethyl-2-(oxetan-3-yl)-4-oxo-chromen-8-yl]ethoxy]pyridine-2-sulfonamide] | < 500 | 
COCCn1cc(-c2oc3c([C@@H](C)Oc4ccc(Cl)nc4S(N)(=O)=O)cc(C)cc3c(=O)c2C)cn1 [Example 117C, 6-Chloro-3-[(1R)-1-[2-[1-(2-methoxyethyl)pyrazol-4-yl]-3,6-dimethyl-4-oxo-chromen-8-yl]ethoxy]pyridine-2-sulfonamide] | < 500 | < 500
Cc1cc([C@@H](C)Oc2ccc(Cl)nc2S(N)(=O)=O)c2oc(-c3ccc4nc(C)cn4c3)c(C)c(=O)c2c1 [Example 120C, 6-Chloro-3-[(1R)-1-[3,6-dimethyl-2-(2-methylimidazo[1,2-a]pyridin-6-yl)-4-oxo-chromen-8-yl]ethoxy]pyridine-2-sulfonamide] | < 500 | 
Cc1cc([C@@H](C)Oc2ccc(Cl)nc2C(N)=O)c2oc(-c3cnc4scnc4c3)c(C)c(=O)c2c1 [Example 126A, 6-Chloro-3-[(1R)-1-(3,6-dimethyl-4-oxo-2-thiazolo[5,4-b]pyridin-6-yl-chromen-8-yl)ethoxy]pyridine-2-carboxamide] | < 500 | 
Cc1cc([C@@H](C)Oc2ccc(Cl)nc2S(N)(=O)=O)c2oc(C3(CCO)CC3)c(C)c(=O)c2c1 [Example 127C, 6-Chloro-3-[(1R)-1-[2-[1-(2-hydroxyethyl)cyclopropyl]-3,6-dimethyl-4-oxo-chromen-8-yl]ethoxy]pyridine-2-sulfonamide] | < 500 | 
CONS(=O)(=O)c1nc(F)ccc1O[C@H](C)c1cc(C)cc2c(=O)c(C)c(-c3cnn(CC(C)(C)O)c3)oc12 [Example 136C, 6-Fluoro-3-[(1R)-1-[2-[1-(2-hydroxy-2-methyl-propyl)pyrazol-4-yl]-3,6-dimethyl-4-oxo-chromen-8-yl]ethoxy]-N-methoxy-pyridine-2-sulfonamide] | < 500 | 

The next lines start with the values.

IC50 (PI3Kα E545K [1]) [nM] | IC50 (PI3Kα E545K [2]) [nM] | Structure (SMILES)
< 500 |  | Cc1cc([C@@H](C)Oc2ccc(Cl)nc2C(N)=O)c2oc(-c3ccc4c(c3)CCN(C)C4)c(C)c(=O)c2c1 [Example 71A, 6-Chloro-3-[(1R)-1-[3,6-dimethyl-2-(2-methyl-3,4-dihydro-1H-isoquinolin-6-yl)-4-oxo-chromen-8-yl]ethoxy]pyridine-2-carboxamide]
< 500 |  | Cc1cc([C@@H](C)Oc2ccc(Cl)nc2C(N)=O)c2oc(-c3ccc4c(c3)CCNC4=O)c(C)c(=O)c2c1 [Example 116A, 6-Chloro-3-[(1R)-1-[3,6-dimethyl-4-oxo-2-(1-oxo-3,4-dihydro-2H-isoquinolin-6-yl)chromen-8-yl]ethoxy]pyridine-2-carboxamide]
< 500 | < 500 | Cc1cc([C@@H](C)Oc2ccc(Cl)nc2C(N)=O)c2oc(-c3ccc4c(c3)OCC(=O)N4C)c(C)c(=O)c2c1 [Example 119A, 6-Chloro-3-[(1R)-1-[3,6-dimethyl-2-(4-methyl-3-oxo-1,4-benzoxazin-7-yl)-4-oxo-chromen-8-yl]ethoxy]pyridine-2-carboxamide]
< 500 | < 500 | Cc1cc([C@@H](C)Oc2ccc(Cl)nc2C(N)=O)c2oc(-c3ccc4nn(CCO)cc4c3)c(C)c(=O)c2c1 [Example 129C, 6-Chloro-3-[(1R)-1-[2-[2-(2-hydroxyethyl)indazol-5-yl]-3,6-dimethyl-4-oxo-chromen-8-yl]ethoxy]pyridine-2-carboxamide]
< 500 | < 500 | Cc1cc([C@@H](C)Oc2ccc(Cl)nc2C(N)=O)c2oc(-c3ccc4nn(CC5(O)CC5)cc4c3)c(C)c(=O)c2c1 [Example 130C, 6-Chloro-3-[(1R)-1-[2-[2-[(1-hydroxycyclopropyl)methyl]indazol-5-yl]-3,6-dimethyl-4-oxo-chromen-8-yl]ethoxy]pyridine-2-carboxamide]
< 500 | < 500 | Cc1cc([C@@H](C)Oc2ccc(Cl)nc2C(N)=O)c2oc(-c3ccc4nc(CCO)sc4c3)c(C)c(=O)c2c1 [Example 132C, 6-Chloro-3-[(1R)-1-[2-[2-(2-hydroxyethyl)-1,3-benzothiazol-6-yl]-3,6-dimethyl-4-oxo-chromen-8-yl]ethoxy]pyridine-2-carboxamide]
< 500 |  | Cc1cc([C@@H](C)Oc2ccc(Cl)nc2C(N)=O)c2oc(-c3ccc4nsnc4c3)c(C)c(=O)c2c1 [Example 140A, 3-[(1R)-1-[2-(2,1,3-Benzothiadiazol-5-yl)-3,6-dimethyl-4-oxo-chromen-8-yl]ethoxy]-6-chloro-pyridine-2-carboxamide]
